Legend:
[1] = system: hypercholesterolemic patients; experiment: Phase 2b randomized double-blind trial: percent change from baseline to week 12 in lipids and CRP; type: in vivo, human
Method: Brief Description of Clinical Study and Results.
Study Objectives. The primary objective was to assess the LDL-C-lowering effect of ETC-1002 monotherapy (120 mg or 180 mg daily) versus EZE monotherapy in hypercholesterolemic patients with or without statin intolerance. Secondary objectives were to characterize the dose response of ETC-1002, evaluate the impact of treatment on other lipid and cardiometabolic biomarkers, compare the LDL-C-lowering effect of ETC-1002 plus EZE combination therapy with EZE monotherapy, and characterize the safety and tolerability of the treatment regimens, including muscle-related adverse events (AEs).
Overall Study Design and Plan. […] 16, 2013 to Aug.
LDL-C was calculated using the Friedewald equation.
Efficacy Endpoints. The primary endpoint was the percent change from baseline to week 12 in calculated LDL-C in patients treated with ETC-1002 monotherapy versus those treated with EZE alone. Secondary endpoints included the dose-response relationship between ETC-1002 and the percent change in LDL-C from baseline to week 12, the percent change in LDL-C from baseline to week 12 in patients treated with ETC-1002 plus EZE versus those treated with EZE alone, and the percent change from baseline to week 12 for all treatment groups in LDL particle number, apolipoprotein B, total cholesterol, non-high-density lipoprotein cholesterol (non-HDL-C), HDL-C, HDL particle number, apolipoprotein A-I, triglycerides, very-low-density lipoprotein (VLDL) particle number, and high-sensitivity C-reactive protein (CRP). Lipoprotein particle number was measured using nuclear magnetic resonance […].
Statistical Plan and Analyses. The study was designed to include 322 patients: 92 patients in each monotherapy group and 23 patients in each combination therapy group. Sample size calculations were performed using nQuery Advisor® version 7.0 (Statistical Solutions, Cork, Ireland). The sample size of 92 patients per monotherapy group was expected to provide 90% power to detect a difference of 10% in the absolute percent change from baseline to week 12 in LDL-C between either ETC-1002 treatment group and the EZE monotherapy group. This calculation was based on a 2-sided t test at the 5% level of significance and assumed a common standard deviation of 15% in the statin-tolerant patients and 22% in the statin-intolerant patients with a dropout rate of 15%.
An analysis of covariance was used to compare each ETC-1002 treatment group with EZE monotherapy for each of the efficacy endpoints. The primary model included the effects of treatment and statin intolerance and the baseline value as a covariate. Baseline was defined as the mean of values from weeks −1 and 0 for LDL-C, non-HDL-C, total cholesterol, HDL-C, and triglycerides. For all other lipid and biomarker measures, baseline was defined as the last value before the first dose of study drug. Missing values at week 12 were imputed using the last-observation-carried-forward procedure. When LDL-C could not be calculated (i.e., triglycerides >400 mg/dL), beta-quantification measurements were used to determine LDL-C values. Least-squares (LS) means and standard errors were obtained for each treatment group; differences in LS means and p-values were obtained for the treatment comparisons. Graphical methods (e.g., normal probability plot and histogram of residuals, plot of residuals vs. predicted values) or analytical methods (e.g., Shapiro-Wilk test), or both, were used to assess the model assumptions. Because of departures from normality observed in the parameters of triglycerides, CRP, and VLDL particle number, nonparametric analyses were performed for these measures, with p-values obtained from the Wilcoxon rank-sum test and median values presented.
Percent changes from baseline in LDL-C also were summarized by statin-tolerance subgroup. […]

[2] = system: hypercholesterolemic patients; experiment: Phase 2b trial: treatment-emergent adverse events and laboratory safety
Description: Study Population. Medically stable, hypercholesterolemic men and women aged 18 through 80 years with a body mass index between 18 to 45 kg/m^2 were included in the study. […] The study population included both statin-tolerant and statin-intolerant participants. Statin intolerance was defined as the inability to tolerate ≥2 statins because of muscle-related symptoms such as pain, weakness, or cramping that began or increased during statin therapy and resolved on statin discontinuation. At least 1 statin must have been administered at the lowest approved daily dose, defined as rosuvastatin 5 mg, atorvastatin 10 mg, simvastatin 10 mg, lovastatin 20 mg, pravastatin 40 mg, fluvastatin 40 mg, or pitavastatin 2 mg. Treatment with less than the lowest approved daily dose of a statin (i.e., skipping days) was considered equivalent to not tolerating 1 statin at the lowest approved daily dose.
Overall Study Design and Plan. […] Patients underwent a 5-week washout of all lipid-regulating drugs and dietary supplements and abstained from these drugs and supplements throughout the study. Patients also underwent a 5-week patient-only-blinded placebo run-in during the screening period (week −5 to week 0). This single-blind placebo run-in period was used to eliminate patients with muscle-related AEs during placebo treatment. Patients reporting new or worsening, unexplained muscle-related AEs during this run-in period were excluded from the study.
Patients were stratified (1:1) by history of statin intolerance and randomized at week 0 in a 4:4:4:1:1 ratio to once-daily treatment with capsules containing ETC-1002 120 mg, ETC-1002 180 mg, EZE, ETC-1002 120 mg plus EZE, or ETC-1002 180 mg plus EZE. […] A contract laboratory (Medpace Inc., Cincinnati, Ohio), performed all clinical laboratory tests. LDL-C was calculated using the Friedewald equation. Phlebotomy was performed after a minimum 12-hour fast (water was allowed) and only if the patient took their dose of study drug the previous day.
Safety Endpoints. The safety of ETC-1002 was assessed using treatment-emergent AEs; hematology, serum chemistry, and urinalysis laboratory values; physical examination findings; vital sign measurements; electrocardiogram (ECG) readings; weight; and ankle and waist circumference measurements. AEs were coded using the Medical Dictionary for Regulatory Activities version 16.0 and evaluated by the investigator for severity and relation to study drug. Muscle-related AEs were defined as those from the system organ class of musculoskeletal and connective tissue disorders, except for those that were not obviously muscle related. Terms included in the muscle-related AE analysis were selected from this system organ class after database lock and before unblinding.
Safety analyses were performed on the safety population, which included randomized patients who received at least 1 dose of study drug. Baseline patient characteristics were summarized for the safety population by treatment group and statin-tolerance subgroup.
Muscle-related AEs also were summarized by statin-tolerance subgroup.

[3] = EZE 10 mg daily, mITT n = 98, LS mean ± SE
[4] = EZE 10 mg daily, mITT n = 98, median (interquartile range)
[5] = EZE 10 mg daily, safety population n = 99
[6] = statin-intolerant patients, EZE 10 mg, n = 51
[7] = statin-tolerant patients, EZE 10 mg, n = 48

O=C1[C@H](CC[C@H](O)c2ccc(F)cc2)[C@@H](c2ccc(O)cc2)N1c1ccc(F)cc1 [EZE, (3R,4S)-1-(4-fluorophenyl)-3-[(3S)-3-(4-fluorophenyl)-3-hydroxypropyl]-4-(4-hydroxyphenyl)azetidin-2-one, reference compound]
Apolipoprotein A-I, percent change from baseline to week 12 [1, 3]: 2.0 ± 1.1% | Apolipoprotein B, percent change from baseline to week 12 [1, 3]: −15.2 ± 1.2% | HDL particle number, percent change from baseline to week 12 [1, 3]: 6.7 ± 1.3% | HDL-C, percent change from baseline to week 12 [1, 3]: 5.0 ± 1.4% | LDL particle number, percent change from baseline to week 12 [1, 3]: −12.7 ± 1.7% | LDL-C, percent change from baseline to week 12 [1, 3]: −21.2 ± 1.3% | Non-HDL-C, percent change from baseline to week 12 [1, 3]: −18.7 ± 1.2% | Total cholesterol, percent change from baseline to week 12 [1, 3]: −14.3 ± 0.9% | CRP, percent change from baseline to week 12 [1, 4]: −10.5 (59.0) % | Triglycerides, percent change from baseline to week 12 [1, 4]: −7.0 (34.9) % | VLDL particle number, percent change from baseline to week 12 [1, 4]: −12.6 (63.4) % | CRP reduction ([1]; EZE alone): 10% | HDL-C increase ([1]; EZE alone, week 12): 5% | ALT or AST, or both, increased >3 times the upper limit of normal at any measurement ([2]; EZE): 1 patient | Serious AE reported (event) ([2]; EZE): transient ischemic attack | ALT increased, patients [2, 5]: 1 (1%) n (%) | AST increased, patients [2, 5]: 0 n (%) | Any AE(s), patients [2, 5]: 53 (54%) n (%) | Arthralgia, patients [2, 5]: 4 (4%) n (%) | Back pain, patients [2, 5]: 8 (8%) n (%) | Blood CK increased, patients [2, 5]: 1 (1%) n (%) | Constipation, patients [2, 5]: 1 (1%) n (%) | Discontinuation due to AE(s), patients [2, 5]: 8 (8%) n (%) | Headache, patients [2, 5]: 1 (1%) n (%) | Myalgia, patients [2, 5]: 6 (6%) n (%) | Nasopharyngitis, patients [2, 5]: 4 (4%) n (%) | Serious AE(s), patients [2, 5]: 1 (1%) n (%) | Study drug-related AE(s), patients [2, 5]: 19 (19%) n (%) | Upper respiratory tract infection, patients [2, 5]: 1 (1%) n (%) | Urinary tract infection, patients [2, 5]: 6 (6%) n (%) | Myalgia, patients, entire study population ([2]; EZE alone): 6% | Any muscle-related AE, patients [2, 6]: 9 (18%) n (%) | Muscle spasms, patients [2, 6]: 1 (2%) n (%) | Muscle-related AE leading to discontinuation, patients [2, 6]: 5 (10%) n (%) | Muscular weakness, patients [2, 6]: 1 (2%) n (%) | Musculoskeletal chest pain, patients [2, 6]: 0 n (%) | Musculoskeletal stiffness, patients [2, 6]: 1 (2%) n (%) | Myalgia, patients [2, 6]: 6 (12%) n (%) | Pain in extremity, patients [2, 6]: 3 (6%) n (%) | Sensation of heaviness, patients [2, 6]: 1 (2%) n (%) | Any muscle-related AE, patients [2, 7]: 3 (6%) n (%) | Muscle spasms, patients [2, 7]: 2 (4%) n (%) | Muscle-related AE leading to discontinuation, patients [2, 7]: 1 (2%) n (%) | Musculoskeletal pain, patients [2, 7]: 1 (2%) n (%) | Myalgia, patients [2, 7]: 0 n (%)

From patent US20210322375A1, “COMBINATION DRUG FORMULATIONS FOR TREATING PATIENTS WITH CARDIOVASCULAR DISEASE AND ASSOCIATED CONDITIONS” (Esperion Therapeutics, Inc., priority 2018, published 2021)
